Consider 4 compounds from publication PMC10197776 (Research Square, 2023).

One data set concerns SARS-CoV-2. Set-up: method as in PMID 35352927. Particulars: TMPRSS2 VeroE6 model of SARS-CoV-2 infection; read-out: EC50 (antiviral); cited from earlier work.
Data set [1] in a line: Intrinsic clearance in human microsomes. The format is in vitro ADME.
The nature of data set [2]: Intrinsic clearance in human S9 fractions. The data set is classed as in vitro ADME.
A further data set has as its target SARS-CoV-2 3CL^pro (Severe acute respiratory syndrome coronavirus 2, UniProt P0DTD1). The data set is described as follows: biochemical. Particulars: for IC50: SARS-CoV-2 3CLpro. The data set is classed as biochemical.
In a further data set the test system is SARS-CoV2. On the set-up: method as in PMID 33786375, PMID 34161756. Particulars: SARS-CoV2 plaque reduction assay; read-out: antiviral EC50; cited from earlier work.

Where only a bound is given, the exact number is not on record here.

On to `Cn1cnc(Cn2c(=O)[nH]/c(=N\c3cc4cn(C)nc4cc3Cl)n(Cc3cc(F)c(F)cc3F)c2=O)n1` [compound 2, Ensitrelvir], for which the EC50 with SARS-CoV-2 is 370 nM.

In the case of `O=C(Cc1cccnc1)N(Cc1cccc(Cl)c1)c1ccc(-c2cn[nH]c2)cc1` [compound 7], the “reduction in intrinsic clearance metabolism versus 6” value in data set [1] and in data set [2] was “two-fold reduction” throughout. Besides, the IC50 at SARS-CoV-2 3CL^pro came to 1270 nM. Further, at SARS-CoV-2 3CL^pro (from 3CLpro IC50), the “LE (ligand efficiency)” value is 0.27.

As to `N#Cc1ccccc1-c1cc(-c2cc(Cl)cc(OCC3CC3)c2)c(=O)n(-c2cccnc2)c1` [compound 3], the EC50 in the data set on SARS-CoV2 is 980 nM.

In the case of `O=C(Cc1cncc2ccccc12)N(Cc1cc(F)cc(Cl)c1)c1ccc(-c2c[nH]cn2)cc1` [compound 27], at SARS-CoV-2 3CL^pro (IC50 ratio vs 19), the “fold improvement in IC50 compared to monocyclic pyridine 19” value is over 6 fold. The compound also returned a 50% inhibitory concentration (IC50) against SARS-CoV-2 3CL^pro of 26 nM. Besides, the LipE at SARS-CoV-2 3CL^pro (from 3CLpro IC50 and calculated properties) is listed as 2.24.
